In article PMC9975698, “Hyperoside alleviates toxicity of β-amyloid via endoplasmic reticulum-mitochondrial calcium signal transduction cascade in APP/PS1 double transgenic Alzheimer's disease mice” (Redox Biology, 2023):

Columns and labels:
Aβ aggregates = molecular target: T1, Aβ aggregates (Homo sapiens, UniProt P05067); assay: Biolayer interferometry (BLI) analysis; assay type: binding
T1 construct: purchased DGpeptites, Hangzhou, CHINA
Description: 200 μL of solution containing 200 μg of the Aβ peptide was incubated at 37 °C for 5 days. EZ-Link NHS-LC-LC-Biotin (Thermo Scientific, USA) was dissolved in DMSO to a concentration of 10 mM. Aβ aggregates was biotinylated in a 1:0.5 M ratio of biotin reagent and incubated for 30 min at room temperature before being added to a 96-well plate (Greiner Bio-One, PN:655,209). Biotinylation was ascertained by loading the mixture onto super streptavidin (SSA) capacity tips (ForteìBIO, CA, USA) and detected by the FortéBIO Octet Red instrument. Additionally, SSA biosensors were pre-wetted with PBS for the recording of baselines. Successful biotinylated Aβ aggregates solution was collected and immobilized onto SSA tips overnight at 4 °C. HYP dissolved in DMSO was diluted to an appropriate concentration with PBS to a final 200 μL/well volume. Control wells were added with an equal amount of DMSO. All experiments consisted of repeated cycles of four significant steps: wash (300 s), baseline (120 s), association (120 s), and dissociation (120 s). The association, dissociation plot, and kinetic constants were analyzed with ForteìBIO data analysis software.

APP/PS1 mice [1] = assay: GFAP immunofluorescent staining of brain tissues; assay type: in vivo; settings: cortex and hippocampus, HYP nasal, 8 weeks
Description: All animal care and experimental procedures were performed in accordance with the “Institutional Animal Care and User Committee Guidelines” of the Macau University of Science and Technology. APP/PSEN1 (APP/PS1) mice (N000175) were purchased from the Nanjing Institute of Biomedical Sciences, Nanjing University, China, weighing 25 ± 5 g. The animals were housed in a temperature-controlled room with a 12 h light/dark cycle and given ad libitum food and water. Male mice were randomly divided into the following 6 experimental groups. (a) wild-type group (n = 6), (b) APP/PS1 group (n = 6), (c) HYP (20 mg/kg group) (n = 7), (d) HYP (40 mg/kg) group (n = 8), (e) HYP (80 mg/kg) group (n = 8) and (f) memantine (MEM) (10 mg/kg) positive control group (n = 8). HYP was dissolved in the solvent containing 10% DMSO, 40% PEG300 and 5% Tween-80 in PBS, and administrated via nasal injection for every 3 days with a volume of 0.5 μL/g of body weight for 8 consecutive weeks. Brain tissues from all treatment groups were fixed and embedded in paraffin for microtome sectioning and immunofluorescence staining. […] The coverslips were then mounted with FluorSave™ mounting media (Calbiochem, San Diego, CA, USA) for fluorescence imaging. […]

APP/PS1 mice [2] = assay: Nissl staining of hippocampus; assay type: in vivo; settings: hippocampus CA3 and DG, vs APP/PS1 control group
Description: All animal care and experimental procedures were performed in accordance with the “Institutional Animal Care and User Committee Guidelines” of the Macau University of Science and Technology. APP/PSEN1 (APP/PS1) mice (N000175) were purchased from the Nanjing Institute of Biomedical Sciences, Nanjing University, China, weighing 25 ± 5 g. The animals were housed in a temperature-controlled room with a 12 h light/dark cycle and given ad libitum food and water. Male mice were randomly divided into the following 6 experimental groups. (a) wild-type group (n = 6), (b) APP/PS1 group (n = 6), (c) HYP (20 mg/kg group) (n = 7), (d) HYP (40 mg/kg) group (n = 8), (e) HYP (80 mg/kg) group (n = 8) and (f) memantine (MEM) (10 mg/kg) positive control group (n = 8). HYP was dissolved in the solvent containing 10% DMSO, 40% PEG300 and 5% Tween-80 in PBS, and administrated via nasal injection for every 3 days with a volume of 0.5 μL/g of body weight for 8 consecutive weeks. The CA1, CA3 and DG regions of the mouse hippocampus was assessed by Nissl staining for Nissl body detection. Brain sections were dehydrated as the same as in HE staining, followed by 1% tar violet staining for 1 h, and with distilled water washing followed by 70% alcohol separation for 1 min. Tissues were then dehydrated in 70%, 80% and 90% of alcohol. […]

HT22 cells = assay: LIVE/DEAD cells analysis (calcein AM / PI); assay type: cell-based; settings: aggregated Aβ-treated HT22, HYP co-treatment 24 h
Description: According to the manufacturer's instructions, cell death was detected by Calcein AM Cell Viability Assay Kit (Beyotime, Shanghai, CHINA). 5 × 10^4 HT22 cells per well were seeded in 24-well plates, and HT22 was treated with HYP (20–80 μM) or PBS for 24 h. After overnight incubation, treated cells were stained with Calcein/Propidium Iodide (PI) dye for 20 min. Cells images were then visualized and captured by using Olympus IX71 fluorescence microscope with FITC and TRITC filters consecutively. Green and red fluorescence images were merged and analyzed with cellSens Standard 1.8.1 software. The percentage of cell death was quantified by dividing the number of dead cells (red fluorescence) by the total number of cells.

T1 sequence (P05067 672-713 limits assumed): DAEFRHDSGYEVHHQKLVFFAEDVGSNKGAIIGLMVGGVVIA

With `O=c1c(O[C@@H]2O[C@H](CO)[C@H](O)[C@H](O)[C@H]2O)c(-c2ccc(O)c(O)c2)oc2cc(O)cc(O)c12` [HYP, Quercetin-3-O-β-D-galactopyranoside] the “Kids” value (Aβ aggregates; Fig. 1G, dissociation rate constant) was 0.0343 s⁻¹, the Kd (Aβ aggregates; HYP 6.25–200 μM, biotinylated Aβ aggregate) was 14.5 µM and the “level of GFAP” value (APP/PS1 mice [1]) was “decreased the level of GFAP in both the cortex and hippocampus”. The “density of neuronal cells (Nissl staining)” value (APP/PS1 mice [2]) was “density of neuronal cells in the CA3 and DG regions was higher” and the “cell viability by calcein AM / PI staining” value (HT22 cells) was “increase of cell viability”.
